“Also recorded” adds a separate entry of the source. Non-standard residues stand in square brackets, D forms with d. Residues, ends and D or L forms follow the SMILES beside them. Dab = NCC[C@H](N)C(=O)O
How the values were obtained:
Type in all cases: binding
RNA duplex 1 = experiment: CD analysis of RNA duplex with peptides/depsipeptides; settings: RNA duplex 5 µM, peptide/depsipeptide 0–10 µM, MES-TEA buffer (60 mM)
Excerpt: The gel was cropped at the edges for clarity. […] […] Red and blue colors of the filled circles correspond to curves of the same color in panel (c). […] […] Scans were from 320 nm to 220 nm with a bandwidth of 5 nm, data pitch of 0.2 nm, and scan rate of 50 nm/min with three accumulations. […] Data were collected in independent triplicates and the data were averaged. Finally, data were smoothed and plotted using Matlab.

[1] = system: RNA duplex 1 (5′-rCrGrCrUrArArArUrCrG-3′ & 5′-rCrGrArUrUrUrArGrCrG-3′); experiment: RNA thermal denaturation (Tm) by UV hyperchromicity at 260 nm with synthetic peptides/depsipeptides, RNA duplex 1; settings: 100 mM NaCl; for RNA duplex 1 Tm: observed Tm with peptide/depsipeptide 100 µM, mean ± SD of 2-4 independent experiments; for RNA duplex 1 ΔTm: peptide/depsipeptide 100 μM, RNA 2.5 μM each strand, mean of 2–4 replicates
Method: Each sample contained RNA duplex 1 (5′-rCrGrCrUrArArArUrCrG-3′ and 5′-rCrGrArUrUrUrArGrCrG-3′, 2.5 μM strand) and peptide/depsipeptide (100 μM) in buffered solution (10 mM phosphate, 100 mM NaCl, pH 7.0 or 10 mM acetate, 100 mM NaCl, pH 5.0). a Structures of depsipeptides used to systematically characterize cationic side chain effects on RNA duplex stability. Lactic acid residues are highlighted. Ac acetyl, Aba acetamidobenzoic acid, which was appended to the N-terminus to increase UV absorbance. b Structures of the Fmoc-didepsipeptide building blocks used for solid-phase synthesis of depsipeptide sequences. Fmoc fluorenylmethoxycarbonyl. c Comparative effects of oligo-didepsipeptide sequences 2–6 and analogous oligo-dipeptide and on the Tm of the RNA duplex (number of independent measurements: n = 3 for Arg and Lys sequences; n = 2 for His and Dab sequences; n = 4 for Orn sequences). The shaded areas correspond to the mean ± SD Tm measured for the RNA duplex alone (n = 16 independent measurements). Data are shown as a scatter plot with mean ± SD. d Comparative effects on RNA duplex Tm of depsipeptide sequences containing a single backbone ester (number of independent measurements: n = 3 for Arg; n = 2 for His, Orn, and Dab; n = 4 for Lys), relative to RNA duplex alone (n = 16 independent measurements). Data are shown as a scatter plot with mean ± SD. e To assess the impact of different cationic side chains on depsipeptide degradation rates, depsipeptides 7–11 (40 μM) were incubated at 37 °C in buffer (100 mM HEPES, 10 mM NaCl, pH 7.3). After 5 min, the reactions were quenched by the addition of 3% TFA, and samples were analyzed by HPLC.
(§1) Prior to Tm analyses, RNA samples were annealed in the appropriate buffer by heating to 75 °C and slowly cooling to room temperature. Depsipeptide/peptide was added to the annealed RNA and incubated at 4 °C for 20 min prior to carrying out the analysis. For analyses involving dry-down reaction mixtures, the Tm was determined by monitoring fluorescence increase upon melting of a fluorophore/quencher-labeled RNA duplex (5′-rCrGrArUrUrUrArGrCrG-/3IABkFQ/-3′ and 3′-rGrCrUrArArArUrCrGrC-FAM-5′) using a BioRad CFX Connect rtPCR instrument with a heating ramp of 1 °C/min and 20 μL final sample volumes. For analyses involving pure, synthetic compounds, the Tm of the RNA was determined by monitoring UV hyperchromicity at 260 nm using a Varian Cary Bio-100 spectrophotometer, with a heating ramp of 1 °C/min and 0.5- or 1-cm pathlength cells. The following RNA sequences were used: RNA duplex 1 = 5′-rCrGrCrUrArArArUrCrG-3′ and 5′-rCrGrArUrUrUrArGrCrG-3′; RNA duplex 2 = 5′-rArArArArUrUrUrArUrArUrUrArUrUrA-3′ and 5′-rUrArArUrArArUrArUrArArArUrUrUrU-3′; RNA duplex 3 = 5′-rArArCrGrUrArUrArCrGrUrU-3′ (palindromic); and H26a RNA = 5′-rArUrGrArGrUrArArCrCrGrUrArArGrGrUrGrArArArUrU-3′. RNA was present in each assay at a final concentration of 2.5 μM of the folded structure (2.5 μM each strand for duplex 1 and duplex 2, 5.0 μM palindromic strand for duplex 3, 2.5 μM strand for H26a RNA). Tm values were determined by nonlinear fitting of the melting curves using GraphPad Prism 8.2.1 for duplex 1 and H26a, or by finding the maximum of the first derivative of the curve using the Varian Cary Bio-100 software for duplex 2 and duplex 3.

[2] = system: H26a RNA (5′-rArUrGrArGrUrArArCrCrGrUrArArGrGrUrGrArArArUrU-3′); experiment: RNA thermal denaturation (Tm) by UV hyperchromicity, H26a RNA hairpin; settings: for H26a RNA Tm: observed Tm with peptide/depsipeptide 100 µM, pH 7.0, RNA alone 53.4 ± 0.5, mean ± SD of 2-4 independent experiments; for H26a RNA ΔTm: peptide/depsipeptide 100 μM, RNA 2.5 μM strand, pH 7.0, 10 mM phosphate, 100 mM NaCl, mean of 2–4 replicates
Method: as §1, with “3. Both methods of determining the Tm gave similar values for a given denaturation curve.” for “3.”

[3] = system: RNA duplex 2 (5′-rArArArArUrUrUrArUrArUrUrArUrUrA-3′ and 5′-rUrArArUrArArUrArUrArArArUrUrUrU-3′); experiment: RNA thermal denaturation (Tm) by UV hyperchromicity, RNA duplex 2; settings: for RNA duplex 2 Tm: observed Tm with peptide/depsipeptide 100 µM, pH 7.0, RNA alone 33.7 ± 0.7, mean ± SD of 2-4 independent experiments; for RNA duplex 2 ΔTm: peptide/depsipeptide 100 μM, RNA 2.5 μM each strand, pH 7.0, 10 mM phosphate, 100 mM NaCl, mean of 2–4 replicates
Method: as §1, with “3. Both methods of determining the Tm gave similar values for a given denaturation curve.” for “3.”

[4] = system: RNA duplex 3 (5′-rArArCrGrUrArUrArCrGrUrU-3′, palindromic); experiment: RNA thermal denaturation (Tm) by UV hyperchromicity, RNA duplex 3; settings: for RNA duplex 3 Tm: observed Tm with peptide/depsipeptide 100 µM, pH 7.0, RNA alone 48.6 ± 0.7, mean ± SD of 2-4 independent experiments; for RNA duplex 3 ΔTm: peptide/depsipeptide 100 μM, 5.0 μM palindromic strand, pH 7.0, 10 mM phosphate, 100 mM NaCl, mean of 2–4 replicates
Method: as §1, with “3. Both methods of determining the Tm gave similar values for a given denaturation curve.” for “3.”

[5] = pH 5.0, 10 mM acetate, RNA alone 41.5 ± 0.3
[6] = pH 7.0, 10 mM phosphate, RNA alone 43.8 ± 0.4
[7] = 10 mM acetate, pH 5.0, vs RNA alone at pH 5.0
[8] = 10 mM phosphate, pH 7.0, vs RNA alone at matched pH

Row | Compound | changes in CD spectra of the RNA duplex upon addition (RNA duplex 1; listed as Ac-Tyr-Gly-(Ala-Dab-Lys)4-NH2) | changes in CD spectra of the RNA duplex upon addition (RNA duplex 1) | RNA duplex 1 Tm [1, 5] | RNA duplex 1 Tm [1, 6] | RNA duplex 1 ΔTm [1, 7] | RNA duplex 1 ΔTm [1, 8] | H26a RNA Tm [2] | H26a RNA ΔTm [2] | RNA duplex 2 Tm [3] | RNA duplex 2 ΔTm [3] | RNA duplex 3 Tm [4] | RNA duplex 3 ΔTm [4]
1 | CC(=O)N[C@@H](Cc1ccc(O)cc1)C(=O)NCC(=O)N[C@@H](C)C(=O)N[C@@H](CCN)C(=O)N[C@@H](CCCCN)C(=O)N[C@@H](C)C(=O)N[C@@H](CCN)C(=O)N[C@@H](CCCCN)C(=O)N[C@@H](C)C(=O)N[C@@H](CCN)C(=O)N[C@@H](CCCCN)C(=O)N[C@@H](C)C(=O)N[C@@H](CCN)C(=O)N[C@@H](CCCCN)C(N)=O (Ac-YGA[Dab]KA[Dab]KA[Dab]KA[Dab]K-NH2) | physical association; also recorded: changes were observed in the CD spectra | – | – | – | – | – | – | – | – | – | – | –
2 | CC(=O)N[C@@H](Cc1ccc(O)cc1)C(=O)NCC(=O)N[C@@H](C)C(=O)N[C@@H](CCN)C(=O)N[C@@H](CCCCN)C(N)=O [Ac-Tyr-Gly-Ala-Dab-Lys-NH2] (Ac-YGA[Dab]K-NH2) | – | physical association | – | – | – | – | – | – | – | – | – | –
3 | Aba-His-lac-His-lac-His-lac-His-lac-His-lac-His-lac-His-lac-His-lac-NH2 [compound 3] | – | – | 46.1 ± 0.7 °C | 44.3 ± 1.0 °C | 4.6 °C | 0.5 °C | – | – | – | – | – | –
4 | CC(=O)N[C@@H](Cc1ccc(O)cc1)C(=O)NCC(=O)N[C@@H](C)C(=O)N[C@@H](CCN)C(=O)N[C@@H](CCCCN)C(=O)N[C@@H](C)C(=O)N[C@@H](CCN)C(=O)N[C@@H](CCCCN)C(=O)N[C@@H](C)C(=O)N[C@@H](CCN)C(=O)N[C@@H](CCCCN)C(N)=O (Ac-YGA[Dab]KA[Dab]KA[Dab]K-NH2) | – | physical association | – | – | – | – | – | – | – | – | – | –
5 | Aba-Gly-Ala-Dab-Lys-Ala-Dab-Dab-lac-Dab-Lys-Ala-Dab-Lys-NH2 [compound 11] | – | – | – | 48.7 ± 0.2 °C | – | 4.9 °C | – | – | – | – | – | –
6 | Aba-Orn-lac-Orn-lac-Orn-lac-Orn-lac-Orn-lac-Orn-lac-Orn-lac-Orn-lac-NH2 [compound 5] | – | – | – | 43.8 ± 0.9 °C | – | 0.0 °C | 52.3 ± 0.6 °C | −1.1 °C | 34.6 ± 0.7 °C | 1.0 °C | 49.1 ± 0.1 °C | 0.5 °C
7 | Aba-Gly-Ala-Dab-Lys-Ala-Dab-His-lac-Dab-Lys-Ala-Dab-Lys-NH2 [compound 8] | – | – | 52.6 ± 0.2 °C | 48.9 ± 1.4 °C | 11.1 °C | 5.1 °C | – | – | – | – | – | –
8 | Aba-Arg-lac-Arg-lac-Arg-lac-Arg-lac-Arg-lac-Arg-lac-Arg-lac-Arg-lac-NH2 [compound 2] | – | – | – | 49.1 ± 0.7 °C | – | 5.3 °C | – | – | – | – | – | –
9 | Aba-Gly-Ala-Dab-Lys-Ala-Dab-Orn-lac-Dab-Lys-Ala-Dab-Lys-NH2 [compound 10] | – | – | – | 48.7 ± 1.2 °C | – | 4.9 °C | 56.9 ± 0.1 °C | 3.5 °C | 41.8 ± 0.5 °C | 8.2 °C | 51.1 ± 1.3 °C | 2.5 °C
10 | Aba-Dab-lac-Dab-lac-Dab-lac-Dab-lac-Dab-lac-Dab-lac-Dab-lac-Dab-lac-NH2 [compound 6] | – | – | – | 44.2 ± 0.2 °C | – | 0.4 °C | 53.9 ± 0.2 °C | 0.5 °C | 36.2 ± 0.1 °C | 2.6 °C | 48.2 ± 0.1 °C | −0.4 °C
11 | Aba-Gly-Ala-Dab-Lys-Ala-Dab-Arg-lac-Dab-Lys-Ala-Dab-Lys-NH2 [compound 7] | – | – | – | 52.5 ± 0.3 °C | – | 8.7 °C | 64.8 ± 0.1 °C | 11.4 °C | 41.8 ± 0.6 °C | 8.1 °C | 60.6 ± 0.8 °C | 12.0 °C
12 | Aba-Lys-lac-Lys-lac-Lys-lac-Lys-lac-Lys-lac-Lys-lac-Lys-lac-Lys-lac-NH2 [compound 4] | – | – | – | 46.4 ± 0.1 °C | – | 2.6 °C | 59.7 ± 0.6 °C | 6.3 °C | 35.2 ± 0.1 °C | 1.5 °C | 52.5 ± 0.7 °C | 3.9 °C
